In assay [1] the target is T1, PRMT5 (Homo sapiens, UniProt O14744).
T1 construct: seeded with 4000 MCF-7 cells; endogenous in cells; host or cells: MCF-7 cells
Description: PRMT5 Cell Target Engagement (TE) Assay. The assay is classed as cell-based. The note with it: MCF-7 cells, treated for 3 days, symmetrically dimethylated (SDMA) nuclear proteins by high content imaging; top concentration 10000 nM. The text has this: The PRMT5 TE assay is a biomarker assay for identifying compounds that inhibit symmetric dimethylation of arginine (SDMA) of PRMT5 substrates. The following substrates have been reported for PRMT5: histone H2A and H4 R3, Histone H3 R2, Histone H3 R8, spliceosome Sm proteins, ribosomal protein RPS10, p53, FEN1, nucleoplasmin, nucleolin, EGFR and EBNA. The assay will focus on detecting symmetrically dimethylated nuclear proteins using high content imaging technology. Detection of the expression of symmetrically dimethylated nuclear proteins is through a mixture of primary rabbit monoclonal antibodies to SDMA (CST 13222), which in turn recognized by an Alexafluor 488 dye-conjugated anti-rabbit IgG secondary antibody. The IN Cell Analyzer 2200 or Opera-Phenix measures nuclear Alexafluor 488 fluorescent dye intensity that is directly related to the level of expression of symmetrically dimethylated nuclear proteins at the single cell level. Nuclear AF488 dye intensities are compared to the mean value for DMSO treated cells (MIN) to report percent of inhibition for each compound-treated well. In this assay, the cell potency (EC50) of each compound was determined from a ten point (1:3 serial dilution; top compound concentration of 10000 nM) titration curve using the following outlined procedure. Each well of a BD falcon collagen coated black/clear bottom 384-well plate was seeded with 4000 MCF-7 cells in 30 μl media and allowed to attach for 5 h. Media is ATCC-formulated Eagle's Minimum Essential Medium, Catalog No. 30-2003. To make the complete growth medium, add the following components to the base medium: 0.01 mg/ml human recombinant insulin; fetal bovine serum to a final concentration of 10%. Additional 30 μl of media containing 2× compounds were added to each well. Cells were treated for 3 days in 37° C. CO2 incubator. On day 3, cells were fixed with Cytofix, permeabilized with 0.4% Triton-X-100/Cytofix, and washed with D-PBS without Ca/Mg. Cells were blocked with Licor Odessey blocking reagent for 1 h at room temperature, followed by incubation with anti-SDMA (1:1000) antibody at 4° C. overnight. 1° antibody was removed, followed by three washings with DPBS without Ca/Mg and 0.05% Tween20. Hoechst (5 μg/ml), Cell Mask deep stain (1:2000) and Alexa488-conjugated goat anti-rabbit IgG (2 μg/mL) was added for 1 hour at room temperature. A final washing step (three washes) was performed before sealing plate for imaging on In Cell Analyzer 2200 or Opera-Phenix. Images from analyzer were uploaded to Columbus (at WP or BOS) for image analysis. IC50 values were determined by 4 parameters robust fit of percent fluorescence units vs. (Log10) compound concentrations.

For assay [2], the target named is T2, Full-length (FL)-PRMT5-MEP50 enzyme complex (Homo sapiens, UniProt O14744).
T2 construct: 1.25 nM of Full-length (FL)-PRMT5-MEP50 enzyme complex; made in house; host or cells: baculovirus-transfected Sf21 cells
T2 sequence (O14744 whole entry): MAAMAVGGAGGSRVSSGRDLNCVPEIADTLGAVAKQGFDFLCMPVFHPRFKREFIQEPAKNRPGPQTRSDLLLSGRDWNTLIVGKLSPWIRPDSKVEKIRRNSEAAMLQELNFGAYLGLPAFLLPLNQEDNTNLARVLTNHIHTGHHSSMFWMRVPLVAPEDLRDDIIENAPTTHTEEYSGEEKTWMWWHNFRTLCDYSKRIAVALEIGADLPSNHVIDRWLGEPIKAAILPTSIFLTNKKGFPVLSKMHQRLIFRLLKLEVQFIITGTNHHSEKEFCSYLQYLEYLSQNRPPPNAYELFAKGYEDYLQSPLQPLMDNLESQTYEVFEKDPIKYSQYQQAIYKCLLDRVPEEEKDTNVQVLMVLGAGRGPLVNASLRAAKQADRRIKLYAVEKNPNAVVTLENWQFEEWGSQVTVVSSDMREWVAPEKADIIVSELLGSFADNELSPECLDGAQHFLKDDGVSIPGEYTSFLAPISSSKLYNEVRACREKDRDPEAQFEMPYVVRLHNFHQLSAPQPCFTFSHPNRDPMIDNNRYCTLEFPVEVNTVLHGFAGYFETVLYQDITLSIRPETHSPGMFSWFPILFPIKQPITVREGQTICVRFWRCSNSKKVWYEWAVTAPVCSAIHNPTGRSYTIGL
T2 sequence (Q9BQA1 whole entry partner): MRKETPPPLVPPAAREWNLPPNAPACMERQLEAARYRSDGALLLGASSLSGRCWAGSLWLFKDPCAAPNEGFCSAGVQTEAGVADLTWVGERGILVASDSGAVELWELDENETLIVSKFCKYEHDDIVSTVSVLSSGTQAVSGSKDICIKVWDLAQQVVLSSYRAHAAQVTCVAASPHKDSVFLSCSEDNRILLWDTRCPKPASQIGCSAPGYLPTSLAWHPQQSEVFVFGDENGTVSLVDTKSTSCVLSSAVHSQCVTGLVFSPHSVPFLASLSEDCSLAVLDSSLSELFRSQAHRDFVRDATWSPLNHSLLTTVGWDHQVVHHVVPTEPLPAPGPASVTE
In words: PRMT5-MEP50 Enzyme Methylation Assay. It is filed as biochemical. Conditions: 1.0 nM PRMT5-MEP50, 75 nM biotinylated H4R3(Me1) peptide, 15 μM SAM, 60 min pre-incubation, 150 min at 37° C. The procedure:
PRMT5/MEP50 biochemical assay is a direct measurement of the methylation activity of the enzyme complex on a short peptide substrate derived from the N-terminus of H4 histone. Methylation experiment is performed with recombinant protein. The assessment of inhibitory effect (IC50) of small molecules is measured by the effectiveness of the compounds to inhibit this reaction.
In this assay, the potency (IC50) of each compound was determined from a twenty-point (1:2 serial dilution; top compound concentration of 100000 nM) titration curve using the following outlined procedure. To each well of a white ProxiPlus 384 well-plate, 100 nL of compound (1% DMSO in final assay volume of 10 μL) was dispensed, followed by the addition of 8 μL of 1× assay buffer (50 mM Bicine pH 8.0, 1 mM DTT, 0.004% Tween20, 0.01% BSA) containing 1.25 nM of Full-length (FL)-PRMT5-MEP50 enzyme complex (recombinant proteins from baculovirus-transfected Sf21 cells: FL-PRMT5; MW=[…] and FL-MEP50; MW=38614) and 1 μL of 150 μM S-(5′-Adenosyl)-L-Methionine Chloride (SAM). Plates were sealed and placed in a 37° C. humidified chamber for a 60 min pre-incubation with compound. Subsequently, each reaction was initiated by the addition of 1 μL 1× assay buffer containing 750 nM biotinylated H4R3(Me1) peptide. The final reaction in each well of 10 μL consists of 1.0 nM PRMT5-MEP50, 75 nM biotinylated-peptide, and 15 μM SAM. Methylation reactions were allowed to proceed for 150 min in a sealed plate at 37° C. Reactions were immediately quenched by the addition of 1 μL of 5% formic acid. Plates were then frozen and shipped to SAMDI™ Tech Inc. to determine the percent conversion from H4R3(Me1) to H4R3(Me2). IC50 values were determined by a 7 parameter biphasic fit model plotting the percent Effect (based on product conversion) vs. (Log10) compound concentrations.

The mark [3] stands for this setting: first value of 7 parameter biphasic fit, read-out: Enzyme Methylation Assay EC50_1.
Setting [4] is: second value of 7 parameter biphasic fit, read-out: Enzyme Methylation Assay EC50_2.

SMILES strings stand for the structures. Structures can show the parent of a compound that is named as a salt. Where two headings read alike, the source gives them in different places.

T1 sequence (O14744 whole entry): as the sequence (O14744 whole entry) above
T1 sequence (Q9BQA1 whole entry partner): as the sequence (Q9BQA1 whole entry partner) above

`Nc1ccn([C@@H]2O[C@H](COc3ccc4cc(Br)c(N)nc4c3)[C@@H](O)[C@H]2O)c2ncnc1-2` [Example 2, 4-[5-O-(2-amino-3-bromo-7-quinolinyl)-b-D-ribofuranosyl]-4H-imidazo[4,5-b]pyridin-7-amine]: the values for the EC50 in assay [1], in assay [2] (setting [3]) and in assay [2] (setting [4]) were 19.2 nM, 0.662 nM and 18.3 nM, respectively.

`CCc1cc2ncnc-2n([C@@H]2C[C@H](CCc3ccc4cc(Br)c(N)nc4c3)[C@@H](O)[C@H]2O)c1` [Example 11, (1S,2R,3S,5R)-3-[2-(2-amino-3-bromo-7-quinolinyl)ethyl]-5-(6-ethyl-4H-imidazo[4,5-b]pyridin-4-yl)-1,2-cyclopentanediol trifluoroacetate]: the EC50 in assay [1] worked out at 30.2 nM; in assay [2] (setting [3]), 0.96 nM.

Take `Cc1ccn([C@@H]2O[C@H](CCc3ccc4cc(Br)c(N)nc4c3)[C@@H](O)[C@H]2O)c2ncnc1-2` [Example 12, (2R,3S,4R,5R)-2-(2-(2-amino-3-bromoquinolin-7-yl)ethyl)-5-(7-methyl-4H-imidazo [4,5-b]pyridin-4-yl)tetrahydrofuran-3,4-diol]: the EC50 in assay [1] stood at 1.7 nM; in assay [2] (setting [3]) it was 0.58 nM.

Consider `Nc1nc2cc(OC[C@H]3O[C@@H](n4cnc(N)c5ncnc4-5)[C@H](O)[C@@H]3O)ccc2cc1Br` [Example 1, 3-[5-O-(2-amino-3-bromo-7-quinolinyl)-b-D-ribofuranosyl]-3H-purin-6-amine], for which the EC50 in assay [1] amounted to 60.6 nM; in assay [2] (setting [3]) it was 1.37 nM; in assay [2] (setting [4]), 85.1 nM.

With `Cc1ncn([C@@H]2C[C@H](CCc3ccc4cc(Br)c(N)nc4c3)[C@@H](O)[C@H]2O)c2ncnc1-2` [Example 9, (1S,2R,3S,5R)-3-[2-(2-amino-3-bromo-7-quinolinyl)ethyl]-5-(6-methyl-3H-purin-3-yl)-1,2-cyclopentanediol], the EC50 in assay [1] came out at 1.05 nM; in assay [2] (setting [3]), 0.282 nM.

Take `Cc1ccn([C@@H]2C[C@H](COc3ccc4cc(Br)c(N)nc4c3)[C@@H](O)[C@H]2O)c2ncnc1-2` [Example 13, (1S,2R,3R,5R)-3-(((2-amino-3-bromoquinolin-7-yl)oxy)methyl)-5-(7-methyl-4H-imidazo[4,5-b]pyridin-4-yl)cyclopentane-1,2-diol]: the results for the EC50 in assay [1] and in assay [2] (setting [3]) were 61.5 nM and 0.404 nM, respectively.

Consider `Nc1ccn([C@@H]2C[C@H](CCc3ccc4cc(Br)c(N)nc4c3)[C@@H](O)[C@H]2O)c2ncnc1-2` [Example 4, (1S,2R,3S,5R)-3-[2-(2-amino-3-bromo-7-quinolinyl)ethyl]-5-(7-amino-4H-imidazo[4,5-b]pyridin-4-yl)-1,2-cyclopentanediol], for which the values for the EC50 in assay [1] and in assay [2] (setting [3]) were 2.54 nM and 0.489 nM, respectively.

For `Cc1cc2ncnc-2n([C@@H]2C[C@H](CCc3ccc4cc(Br)c(N)nc4c3)[C@@H](O)[C@H]2O)c1` [Example 10, (1S,2R,3S,5R)-3-[2-(2-amino-3-bromo-7-quinolinyl)ethyl]-5-(6-methyl-4H-imidazo[4,5-b]pyridin-4-yl)-1,2-cyclopentanediol trifluoroacetate], the EC50 in assay [1] amounted to 116 nM; in assay [2] (setting [3]) it was 1.62 nM.

`Cc1ccn([C@@H]2C[C@H](CCc3ccc4cc(Br)c(N)nc4c3)[C@@H](O)[C@H]2O)c2ncnc1-2` [Example 5, (1S,2R,3S,5R)-3-[2-(2-amino-3-bromo-7-quinolinyl)ethyl]-5-(7-methyl-4H-imidazo[4,5-b]pyridin-4-yl)-1,2-cyclopentanediol]: the EC50 in assay [1] is 0.508 nM; in assay [2] (setting [3]) it was 0.32 nM.

For the compound `Cc1ccn([C@@H]2C[C@H](CCc3ccc4ccc(NCC(F)F)nc4c3)[C@@H](O)[C@H]2O)c2ncnc1-2` [Example 8, (1S,2R,3S,5R)-3-(2-{2-[(2,2-difluoroethyl)amino]-7-quinolinyl}ethyl)-5-(7-methyl-4H-imidazo[4,5-b]pyridin-4-yl)-1,2-cyclopentanediol], the values for the EC50 in assay [1] and in assay [2] (setting [3]) were 1.94 nM and 0.253 nM, respectively.

In the case of `Nc1ccn([C@@H]2C[C@H](CCc3ccc4ccc(NCC(F)F)nc4c3)[C@@H](O)[C@H]2O)c2ncnc1-2` [Example 7, (1R,2S,3R,5S)-3-(7-amino-4H-imidazo[4,5-b]pyridin-4-yl)-5-(2-{2-[(2,2-difluoroethyl)amino]-7-quinolinyl}ethyl)-1,2-cyclopentanediol], the EC50 in assay [1] amounted to 16.1 nM; in assay [2] (setting [3]), 0.231 nM.

With `Nc1nc2cc(CC[C@H]3C[C@@H](n4cnc(N)c5ncnc4-5)[C@H](O)[C@@H]3O)ccc2cc1Br` [Example 6, (1S,2R,3S,5R)-3-[2-(2-amino-3-bromo-7-quinolinyl)ethyl]-5-(6-amino-3H-purin-3-yl)-1,2-cyclopentanediol hydrochloride], the EC50 in assay [1] came to 1.69 nM; in assay [2] (setting [3]), 0.264 nM.

`Nc1nc2cc(OC[C@H]3O[C@@H](n4nc5ncnc-5c(N)n4)[C@H](O)[C@@H]3O)ccc2cc1Br` [Example 3, 2-[5-O-(2-amino-3-bromo-7-quinolinyl)-b-D-ribofuranosyl]-2H-imidazo[4,5-d][1,2,3]triazin-4-amine trifluoroacetate]: the EC50 was above 10000 nM in assay [1] and 1620 nM in assay [2] (setting [3]).

These data come from patent US11981701B2, “PRMT5 inhibitors” (Merck Sharp & Dohme LLC, priority 2018, dated 2024).
